In patent US5773439A, “Amido-quinoxalinediones, the preparation and use thereof” (BASF Aktiengesellschaft, priority 1994, dated 1998):

Tested on: AMPA receptor
Test: Binding of 3H-AMPA to rat cerebra membranes
Details: for activity compared with the substance of Example 56 in EP 572,852 and compound 16: 3H-AMPA binding; for Ki: displacement of 3H-AMPA, isolated membrane material from rat cerebra
Experimental: The pharmacological activity of the compounds I was investigated in isolated membrane material from rat cerebra. For this purpose, the membrane material was treated in the presence of the compounds according to the invention with the radiolabeled substances ^3 H-2-amino-3-hydroxy-5-methyl-4-isoxazolepropionic acid (^3 H-AMPA) [^3 H]-glycine or [^3 H]-kainate, these binding to specific receptors (AMPA, NMDA or kainate receptors). Subsequently, the radioactivity of the treated membranes was measured by scintillation counting. It was possible to determine from the bound radioactivity the amounts of bound ^3 H-AMPA, [^3 H]-glycine or [^3 H]-kainate, or in each case the amounts of these radiolabeled substances displaced. The dissociation constant KI (I=inhibitor) derived from this is a measure of the displacing action of the agent according to the invention and was found by iterative non-linear regression analysis using the statistical analysis system (SAS) on an IBM computer, similar to the "Ligand" program of P. J. Munson and D. Rodbard (Analytical Biochem. 107, 220 (1980), Ligand: Versatile Computerized Approach for Characterization of Ligand Binding Systems).
1. Binding of ^3 H-2-amino-3-hydroxy-5-methyl-4-isoxazolepropionic acid (^3 H-AMPA)
To prepare the membrane material, freshly removed rat cerebra were homogenized together with 15 times the volume of a buffer solution A comprising 30 mM α,α,α-tris(hydroxymethyl)methylamine hydrochloride (TRIS-HCl) and 0.5 mM ethylenediaminetetraacetic acid (EDTA), pH 7.4, using an Ultra-Turrax®. The suspension was centrifuged at 48,000 g for 20 min. After removal of the supernatant liquid, the protein-containing membrane material contained in the sediment was washed three times by suspension in buffer solution A and subsequent centrifugation at 48,000 g for 20 minutes each time. The membrane material was then suspended in 15 times the volume of buffer solution A and incubated at 37° C. for 30 min. The protein material was subsequently washed twice by centrifugation and suspension and stored at -70° C. until used.
For the binding assay, the protein material was thawed at 37° C. and washed twice by centrifugation at 48,000 g (20 min) and subsequent suspension in a buffer solution B comprising 50 mM TRIS-HCl, 0.1M potassium thiocyanate and 2.5 mM calcium chloride, pH 7.1. Subsequently, 0.25 mg of membrane material, 0.1 μCi of ^3 H-AMPA (60 Ci/mmol) and compound I were dissolved in 1 ml of buffer solution B and incubated on ice for 60 min. The incubated solution was filtered through a CF/B filter (from Whatman) which had previously been treated with a 0.5% strength aqueous solution of polyethyleneimine for at least 2 hours. The membrane residue was subsequently washed with 5 ml of cold buffer solution B in order to separate bound and free ^3 H-AMPA from one another. After measurement of the radioactivity of the bound ^3 H-AMPA in the membrane material by scintillation counting, the KI was determined by regression analysis of the displacement plots.

SMILES	activity compared with the substance of Example 56 in EP 572,852 and compound 16 (comparison in words)	activity compared with 1-carbamoyl-7-pyrrolylquinoxalinedione (Example 56 in EP 572,852) (comparison in words, test not named)	Ki [µM]
O=C(Nn1c(=O)c(=O)[nH]c2cc(C(F)(F)F)c(-n3cccc3)cc21)c1ccccc1 [Example 29, 1-Benzamido-7-(1-pyrrolyl)-6-trifluoromethylquinoxaline-2,3-(1H,4H)-dione]	more active	distinctly more active	< 10
O=C(Nn1c(=O)c(=O)[nH]c2cc(C(F)(F)F)ccc21)c1ccccc1 [Example 1, 1-Benzamido-6-trifluoromethylquinoxaline-2,3(1H,4H)-dione]	more active	–	< 10
